Measurements: paper PMC6888128, “Biosynthesis of Phenylamide Phytoalexins in Pathogen-Infected Barley” (International Journal of Molecular Sciences, 2019)
Read-outs that look alike come from different tables or passages of the source.

How the values were obtained:
[1] = system: T1, HvTHT8; assay: LC-MS/MS (MRM) of amide product; format: biochemical, Hordeum vulgare; details: 100 mM Tris-HCl pH 8.0, 35 °C, read-out: HvTHT8 / K m
T1 construct: His-GST-tagged (pCold GST), E. coli BL21, TALON-purified; differs from HvTHT7 only at residue 166 (His/Arg)
From the text: LC-MS/MS (MRM) of amide product on HvTHT8

[2] = system: T2, HvTHT7; assay: LC-MS/MS (MRM) of amide product; format: biochemical, Hordeum vulgare; details: 100 mM Tris-HCl pH 8.0, 35 °C, read-out: HvTHT7 / K m
T2 construct: His-GST-tagged (pCold GST), E. coli BL21, TALON-purified; HvTHT7 plasmid made by site-directed mutagenesis of HvTHT8; differs from HvTHT8 only at residue 166 (His/Arg)
From the text: LC-MS/MS (MRM) of amide product on HvTHT7

[3] = acyl acceptor, 200 µM cinnamoyl-CoA

Structure (SMILES)	Km [1, 3] [µM]	Km [2, 3] [µM]	Km ([1]; acyl donor, 1 mM tryptamine) [µM]	Km ([2]; acyl donor, 1 mM tryptamine) [µM]
NCC(=O)c1c[nH]c2ccccc12 [8-Oxotryptamine]	54.9	53.1	–	–
CC(C)(COP(=O)(O)OP(=O)(O)OC[C@H]1O[C@@H](n2cnc3c(N)ncnc32)[C@H](O)[C@@H]1OP(=O)(O)O)[C@@H](O)C(=O)NCCC(=O)NCCSC(=O)/C=C/c1ccccc1 [Cinnamoyl-CoA]	–	–	62.1	64.2
CC(C)(COP(=O)(O)OP(=O)(O)OC[C@H]1O[C@@H](n2cnc3c(N)ncnc32)[C@H](O)[C@@H]1OP(=O)(O)O)[C@@H](O)C(=O)NCCC(=O)NCCSC(=O)/C=C/c1ccc(O)cc1 [Coumaroyl-CoA]	–	–	35.5	39.2
COc1cc(/C=C/C(=O)SCCNC(=O)CCNC(=O)[C@H](O)C(C)(C)COP(=O)(O)OP(=O)(O)OC[C@H]2O[C@@H](n3cnc4c(N)ncnc43)[C@H](O)[C@@H]2OP(=O)(O)O)ccc1O [Feruloyl-CoA]	–	–	36.7	32.6
NCc1c[nH]c2ccccc12 [IMA, (1H-indol-3-yl)methylamine]	33.9	54.2	–	–
NCCc1c[nH]c2ccc(O)cc12 [Serotonin]	347	385	–	–
NCCc1c[nH]c2ccccc12 [Tryptamine]	60.6	59.2	–	–
